{"source": "paper PMC5218480", "about": "(PLoS ONE, 2017)", "system": "MV-4-11 cells", "assay": "Gene expression microarray analysis (Affymetrix PrimeView) and GSEA", "type": "cell-based, human", "parameters": "RFU PODN (11730768_x_at) / Fold change /veh PODN (11730768_x_at) / RFU LINC00158 (11744669_a_at) / Fold change /veh LINC00158 (11744669_a_at) / RFU DUSP10 (11751237_a_at) / Fold change /veh DUSP10 (11751237_a_at) / RFU ID3 (11757404_x_at) / Fold change /veh ID3 (11757404_x_at) / RFU PLEKHG5 (11737974_s_at) / Fold change /veh PLEKHG5 (11737974_s_at) / RFU LRRC4B (11730491_at) / Fold change /veh LRRC4B (11730491_at) / RFU GIMAP4 (11747438_a_at) / Fold change /veh GIMAP4 (11747438_a_at) / RFU KRT8 (11758183_x_at) / Fold change /veh KRT8 (11758183_x_at) / RFU CNN1 (11734310_a_at) / Fold change /veh CNN1 (11734310_a_at) / RFU VPS37D (11726825_at) / Fold change /veh VPS37D (11726825_at) / RFU C10orf10 (11716522_x_at) / Fold change /veh C10orf10 (11716522_x_at) / RFU KIR2DL2 /// KIR2DL4 /// KIR2DL5A /// KIR2DL5B /// KIR2DS1 /// KIR2DS2 /// KIR2DS3 /// KIR2DS4 /// KIR3DL3 /// KIR3DL3 /// KIR3DS1 (11738374_at) / Fold change /veh KIR2DL2 /// KIR2DL4 /// KIR2DL5A /// KIR2DL5B /// KIR2DS1 /// KIR2DS2 /// KIR2DS3 /// KIR2DS4 /// KIR3DL3 /// KIR3DL3 /// KIR3DS1 (11738374_at) / RFU C1QL1 (11718748_at) / Fold change /veh C1QL1 (11718748_at) / RFU TMPRSS4 (11747572_a_at) / Fold change /veh TMPRSS4 (11747572_a_at) / RFU HAMP (11756126_x_at) / Fold change /veh HAMP (11756126_x_at) / RFU RNFT2 (11725882_a_at) / Fold change /veh RNFT2 (11725882_a_at) / RFU NR4A2 (11747474_a_at) / Fold change /veh NR4A2 (11747474_a_at) / RFU ABCC12 (11746883_a_at) / Fold change /veh ABCC12 (11746883_a_at) / RFU TMEM136 (11760407_x_at) / Fold change /veh TMEM136 (11760407_x_at) / RFU CLDN22 /// WWC2 (11732394_at) / Fold change /veh CLDN22 /// WWC2 (11732394_at) / RFU HLA-DPB1 (11760878_x_at) / Fold change /veh HLA-DPB1 (11760878_x_at) / RFU SPINT1 (11716480_a_at) / Fold change /veh SPINT1 (11716480_a_at) / RFU GAP43 (11754022_s_at) / Fold change /veh GAP43 (11754022_s_at) / RFU A4GNT (11735810_at) / Fold change /veh A4GNT (11735810_at) / RFU PRB3 (11715151_x_at) / Fold change /veh PRB3 (11715151_x_at) / RFU TUBB4B (11761932_at) / Fold change /veh TUBB4B (11761932_at) / RFU CAPN14 (11732068_a_at) / Fold change /veh CAPN14 (11732068_a_at) / RFU TMCC2 (11721928_a_at) / Fold change /veh TMCC2 (11721928_a_at) / RFU IRGQ (11745062_a_at) / Fold change /veh IRGQ (11745062_a_at) / RFU FAM174B (11720279_a_at) / Fold change /veh FAM174B (11720279_a_at) / RFU TMPRSS4 (11748680_a_at) / Fold change /veh TMPRSS4 (11748680_a_at) / RFU FAM212B (11763350_a_at) / Fold change /veh FAM212B (11763350_a_at) / RFU PLEKHG5 (11743358_a_at) / Fold change /veh PLEKHG5 (11743358_a_at) / RFU ZSCAN30 (11745921_a_at) / Fold change /veh ZSCAN30 (11745921_a_at) / RFU CMKLR1 (11741424_a_at) / Fold change /veh CMKLR1 (11741424_a_at) / RFU LOC101060620 /// MAPK8IP1 (11723275_at) / Fold change /veh LOC101060620 /// MAPK8IP1 (11723275_at) / RFU SPTSSB (11747773_x_at) / Fold change /veh SPTSSB (11747773_x_at) / RFU PRSS12 (11739890_at) / Fold change /veh PRSS12 (11739890_at) / RFU BIN1 (11741810_x_at) / Fold change /veh BIN1 (11741810_x_at) / RFU WNT11 (11732464_a_at) / Fold change /veh WNT11 (11732464_a_at) / RFU C10orf10 (11716521_a_at) / Fold change /veh C10orf10 (11716521_a_at) / RFU C5orf56 (11738089_at) / Fold change /veh C5orf56 (11738089_at) / RFU CYB561 (11721691_x_at) / Fold change /veh CYB561 (11721691_x_at) / RFU ANKRD19P (11752326_a_at) / Fold change /veh ANKRD19P (11752326_a_at) / RFU OR2T12 /// OR2T33 /// OR2T8 (11738714_s_at) / Fold change /veh OR2T12 /// OR2T33 /// OR2T8 (11738714_s_at) / RFU VCAN (11748164_a_at) / Fold change /veh VCAN (11748164_a_at) / RFU JSRP1 (11732532_at) / Fold change /veh JSRP1 (11732532_at) / RFU KRTAP10-11 (11738290_x_at) / Fold change /veh KRTAP10-11 (11738290_x_at) / RFU MYO3A (11730013_a_at) / Fold change /veh MYO3A (11730013_a_at) / RFU EBF3 (11725865_a_at) / Fold change /veh EBF3 (11725865_a_at) / RFU CAMK2N1 (11719241_x_at) / Fold change /veh CAMK2N1 (11719241_x_at) / RFU C5orf56 (11738088_a_at) / Fold change /veh C5orf56 (11738088_a_at) / RFU OLFML3 (11715873_a_at) / Fold change /veh OLFML3 (11715873_a_at) / RFU LOC100653217 /// NTM (11731650_a_at) / Fold change /veh LOC100653217 /// NTM (11731650_a_at) / RFU MAPK11 (11762145_a_at) / Fold change /veh MAPK11 (11762145_a_at) / RFU FIZ1 (11724087_x_at) / Fold change /veh FIZ1 (11724087_x_at) / RFU OASL (11726364_x_at) / Fold change /veh OASL (11726364_x_at) / RFU SOX15 (11748057_x_at) / Fold change /veh SOX15 (11748057_x_at) / RFU CD79A (11719716_a_at) / Fold change /veh CD79A (11719716_a_at) / RFU HIST1H1D (11736915_at) / Fold change /veh HIST1H1D (11736915_at) / RFU CASKIN2 (11723855_a_at) / Fold change /veh CASKIN2 (11723855_a_at) / RFU LOC730098 (11760151_x_at) / Fold change /veh LOC730098 (11760151_x_at) / RFU OR4N2 (11742367_at) / Fold change /veh OR4N2 (11742367_at) / RFU PRRT2 (11749266_a_at) / Fold change /veh PRRT2 (11749266_a_at) / RFU SNX32 (11753110_a_at) / Fold change /veh SNX32 (11753110_a_at) / RFU CDHR5 (11726645_a_at) / Fold change /veh CDHR5 (11726645_a_at) / RFU RCAN1 (11760418_a_at) / Fold change /veh RCAN1 (11760418_a_at) / RFU FAM167A (11723789_a_at) / Fold change /veh FAM167A (11723789_a_at) / RFU FAM26E (11764081_at) / Fold change /veh FAM26E (11764081_at) / RFU ISYNA1 (11749810_s_at) / Fold change /veh ISYNA1 (11749810_s_at) / RFU ACY1 (11761880_at) / Fold change /veh ACY1 (11761880_at) / RFU 11764098_at / Fold change /veh 11764098_at / RFU SAMD14 (11745864_x_at) / Fold change /veh SAMD14 (11745864_x_at) / RFU NPB (11741838_a_at) / Fold change /veh NPB (11741838_a_at) / RFU TMPRSS6 (11731388_a_at) / Fold change /veh TMPRSS6 (11731388_a_at) / RFU KRTAP10-2 (11738614_at) / Fold change /veh KRTAP10-2 (11738614_at) / RFU ARHGAP8 /// PRR5-ARHGAP8 (11727945_x_at) / Fold change /veh ARHGAP8 /// PRR5-ARHGAP8 (11727945_x_at) / RFU KRTAP5-7 /// NADSYN1 (11734609_at) / Fold change /veh KRTAP5-7 /// NADSYN1 (11734609_at) / RFU RASL12 (11751679_a_at) / Fold change /veh RASL12 (11751679_a_at) / RFU CDKN2B (11736163_a_at) / Fold change /veh CDKN2B (11736163_a_at) / RFU PRF1 (11729649_at) / Fold change /veh PRF1 (11729649_at) / RFU, ZNF638 /// ZNF638-IT1 / Fold change vs veh, ZNF638 /// ZNF638-IT1 / RFU, PANK3 / Fold change vs veh, PANK3 / RFU, SH3YL1 / Fold change vs veh, SH3YL1 / RFU, ZEB2 / Fold change vs veh, ZEB2 / RFU, NRIP1 / Fold change vs veh, NRIP1 / RFU, PTTG1IP / Fold change vs veh, PTTG1IP / RFU, CAPN2 / Fold change vs veh, CAPN2 / RFU, MED14 / Fold change vs veh, MED14 / RFU, SNORA58 / Fold change vs veh, SNORA58 / RFU, C1orf63 / Fold change vs veh, C1orf63 / RFU, LRRFIP1 / Fold change vs veh, LRRFIP1 / RFU, NDUFAF7 / Fold change vs veh, NDUFAF7 / RFU, SLC12A2 / Fold change vs veh, SLC12A2 / RFU, IBTK / Fold change vs veh, IBTK / RFU, ESF1 / Fold change vs veh, ESF1 / Fold change vs veh, TMEM50B / RFU, TAOK1 / Fold change vs veh, TAOK1 / RFU, ACBD3 / Fold change vs veh, ACBD3 / RFU, TMA16 / Fold change vs veh, TMA16 / RFU, RWDD3 / Fold change vs veh, RWDD3 / RFU, BCAT1 / Fold change vs veh, BCAT1 / RFU, EDEM3 / Fold change vs veh, EDEM3 / RFU, TMEM33 / Fold change vs veh, TMEM33 / RFU, WDR75 / Fold change vs veh, WDR75 / RFU, AHCTF1 / Fold change vs veh, AHCTF1 / RFU, TFRC / Fold change vs veh, TFRC / RFU, ZDHHC17 / Fold change vs veh, ZDHHC17 / RFU, NOM1 / Fold change vs veh, NOM1 / RFU, ARL8B / Fold change vs veh, ARL8B / RFU, ZBTB11 / Fold change vs veh, ZBTB11 / RFU, TAMM41 / Fold change vs veh, TAMM41 / RFU, KIAA1704 /// LOC100996395 / Fold change vs veh, KIAA1704 /// LOC100996395 / RFU, ING1 / Fold change vs veh, ING1 / RFU, TRMT61B / Fold change vs veh, TRMT61B / RFU, FUBP3 / Fold change vs veh, FUBP3 / RFU, TP53 / Fold change vs veh, TP53 / RFU, TNKS2 / Fold change vs veh, TNKS2 / RFU, ZFP14 / Fold change vs veh, ZFP14 / RFU, ACTR2 / Fold change vs veh, ACTR2 / RFU, PPP3R1 / Fold change vs veh, PPP3R1 / RFU, PIK3R1 / Fold change vs veh, PIK3R1 / RFU, HNRNPA1 / Fold change vs veh, HNRNPA1 / RFU, RNF170 / Fold change vs veh, RNF170 / RFU, ZNF28 / Fold change vs veh, ZNF28 / RFU, RNGTT / Fold change vs veh, RNGTT / RFU, OGT / Fold change vs veh, OGT / RFU, BRD1 / Fold change vs veh, BRD1 / RFU, MARS / Fold change vs veh, MARS / RFU, ZNF655 / Fold change vs veh, ZNF655 / RFU, FAHD1 / Fold change vs veh, FAHD1 / RFU, BDP1 / Fold change vs veh, BDP1 / RFU, LRRCC1 / Fold change vs veh, LRRCC1 / RFU, ARID1A / Fold change vs veh, ARID1A / RFU, ZNF146 / Fold change vs veh, ZNF146 / RFU, ZNF330 / Fold change vs veh, ZNF330 / RFU, GPN3 / Fold change vs veh, GPN3 / RFU, C9orf123 / Fold change vs veh, C9orf123 / RFU, N4BP2L2 / Fold change vs veh, N4BP2L2 / RFU, ARFIP1 / Fold change vs veh, ARFIP1 / RFU, FAM179B / Fold change vs veh, FAM179B / RFU, BCL10 / Fold change vs veh, BCL10 / RFU, UHRF1BP1L / Fold change vs veh, UHRF1BP1L / RFU, BET1 / Fold change vs veh, BET1 / RFU, CNOT2 / Fold change vs veh, CNOT2 / RFU, ZNF268 / Fold change vs veh, ZNF268 / Fold change vs veh, ZNF507 / RFU, DGCR2 / Fold change vs veh, DGCR2 / RFU, WDSUB1 / Fold change vs veh, WDSUB1 / Fold change vs veh, HSP90B1 /// MIR3652 / RFU, ADSS / Fold change vs veh, ADSS / RFU, GK / Fold change vs veh, GK / RFU, ZNF148 / Fold change vs veh, ZNF148 / RFU, TAF9 / Fold change vs veh, TAF9 / RFU, SLC1A5 / Fold change vs veh, SLC1A5 / RFU, SLMO2 / Fold change vs veh, SLMO2 / RFU, ABCC4 / Fold change vs veh, ABCC4 / RFU, LOC101060439 /// RAP1B / Fold change vs veh, LOC101060439 /// RAP1B / RFU, RFX7 / Fold change vs veh, RFX7 / RFU, GTPBP10 / Fold change vs veh, GTPBP10 / RFU, CNEP1R1 / Fold change vs veh, CNEP1R1 / RFU, BIVM-ERCC5 /// ERCC5 / Fold change vs veh, BIVM-ERCC5 /// ERCC5 / RFU, ILF3 / Fold change vs veh, ILF3 / RFU 11762660_at / Fold change /veh 11762660_at / RFU VCAN (11757783_s_at) / Fold change /veh VCAN (11757783_s_at) / RFU DDX43 (11728927_at) / Fold change /veh DDX43 (11728927_at) / RFU KRT8 (11758188_x_at) / Fold change /veh KRT8 (11758188_x_at) / RFU NKD1 (11759106_at) / Fold change /veh NKD1 (11759106_at) / RFU SRD5A1 (11742802_a_at) / Fold change /veh SRD5A1 (11742802_a_at) / RFU TPSAB1 /// TPSB2 (11721975_s_at) / Fold change /veh TPSAB1 /// TPSB2 (11721975_s_at) / RFU GSTM3 (11746129_a_at) / Fold change /veh GSTM3 (11746129_a_at) / RFU IL23R (11737362_x_at) / Fold change /veh IL23R (11737362_x_at) / RFU TMEM51 (11727254_a_at) / Fold change /veh TMEM51 (11727254_a_at) / RFU PIWIL2 (11732686_x_at) / Fold change /veh PIWIL2 (11732686_x_at) / RFU ORM1 (11744905_x_at) / Fold change /veh ORM1 (11744905_x_at) / RFU CCDC152 (11743942_at) / Fold change /veh CCDC152 (11743942_at) / RFU ECM1 (11717891_a_at) / Fold change /veh ECM1 (11717891_a_at) / RFU IL23R (11748794_a_at) / Fold change /veh IL23R (11748794_a_at) / RFU TNFAIP8L3 (11732012_x_at) / Fold change /veh TNFAIP8L3 (11732012_x_at) / RFU MBOAT4 (11741988_at) / Fold change /veh MBOAT4 (11741988_at) / RFU 11764193_at / Fold change /veh 11764193_at / RFU TMEM53 (11763286_at) / Fold change /veh TMEM53 (11763286_at) / RFU MAGEB2 (11727129_at) / Fold change /veh MAGEB2 (11727129_at) / RFU TMEM200A (11744735_a_at) / Fold change /veh TMEM200A (11744735_a_at) / RFU CCDC152 (11751479_a_at) / Fold change /veh CCDC152 (11751479_a_at) / RFU FAM211A (11726209_a_at) / Fold change /veh FAM211A (11726209_a_at) / RFU RGS16 (11746705_a_at) / Fold change /veh RGS16 (11746705_a_at) / RFU VCAN (11755009_s_at) / Fold change /veh VCAN (11755009_s_at) / RFU RHOB (11743442_s_at) / Fold change /veh RHOB (11743442_s_at) / RFU RGS16 (11720943_a_at) / Fold change /veh RGS16 (11720943_a_at) / RFU RGS16 (11720944_at) / Fold change /veh RGS16 (11720944_at) / RFU, VPS4B / Fold change vs veh, VPS4B / RFU, CREB1 / Fold change vs veh, CREB1 / RFU, DNAJC13 / Fold change vs veh, DNAJC13 / RFU, GNAQ / Fold change vs veh, GNAQ / RFU, CDK5R1 / Fold change vs veh, CDK5R1 / RFU, ZRANB3 / Fold change vs veh, ZRANB3 / RFU, CUL4A / Fold change vs veh, CUL4A / RFU, CCNY / Fold change vs veh, CCNY / RFU, UFL1 / Fold change vs veh, UFL1 / RFU, COG3 / Fold change vs veh, COG3 / RFU, DIAPH2 / Fold change vs veh, DIAPH2 / RFU, SKA2 / Fold change vs veh, SKA2 / RFU, AFF3 / Fold change vs veh, AFF3 / RFU, LMF1 / Fold change vs veh, LMF1 / RFU, IPO11 / Fold change vs veh, IPO11 / RFU, DFFB / Fold change vs veh, DFFB / RFU, FOXP1 / Fold change vs veh, FOXP1 / RFU, CARD8 / Fold change vs veh, CARD8 / RFU, STRN3 / Fold change vs veh, STRN3 / RFU, ADK / Fold change vs veh, ADK / RFU, RASSF2 / Fold change vs veh, RASSF2 / RFU, WIPF1 / Fold change vs veh, WIPF1 / RFU, LARP1B / Fold change vs veh, LARP1B / RFU, RASA1 / Fold change vs veh, RASA1 / RFU, RB1 / Fold change vs veh, RB1 / RFU, PPFIA1 / Fold change vs veh, PPFIA1 / RFU, MAT2A / Fold change vs veh, MAT2A / RFU, CCT5 / Fold change vs veh, CCT5 / RFU, WDR92 / Fold change vs veh, WDR92 / RFU, CUX1 / Fold change vs veh, CUX1 / RFU, TTC7A / Fold change vs veh, TTC7A / RFU, TMEM135 / Fold change vs veh, TMEM135 / RFU, DEPTOR / Fold change vs veh, DEPTOR / RFU, CPM / Fold change vs veh, CPM / RFU, DNAJB6 / Fold change vs veh, DNAJB6 / RFU, CACNA2D3 / Fold change vs veh, CACNA2D3 / RFU, DTX4 / Fold change vs veh, DTX4 / RFU, TFCP2 / Fold change vs veh, TFCP2 / RFU, GMCL1 /// GMCL1P1 / Fold change vs veh, GMCL1 /// GMCL1P1 / RFU, AEBP2 / Fold change vs veh, AEBP2 / RFU, SNHG1 /// SNORD22 /// SNORD25 /// SNORD26 /// SNORD27 /// SNORD28 /// SNORD29 /// SNORD31 / Fold change vs veh, SNHG1 /// SNORD22 /// SNORD25 /// SNORD26 /// SNORD27 /// SNORD28 /// SNORD29 /// SNORD31 / Fold change (Aza/veh), C12orf56 (ProbeSet 11735607_a_at) / Fold change (ACY-1035/veh), C12orf56 (ProbeSet 11735607_a_at) / Fold change (Aza/veh), FGFR1OP (ProbeSet 11751329_s_at) / Fold change (ACY-1035/veh), FGFR1OP (ProbeSet 11751329_s_at) / Fold change (Aza/veh), VPS36 (ProbeSet 11739960_a_at) / Fold change (ACY-1035/veh), VPS36 (ProbeSet 11739960_a_at) / RFU SYPL1 (11715823_x_at) / Fold change /veh SYPL1 (11715823_x_at) / RFU IGFBP7 (11715501_s_at) / Fold change /veh IGFBP7 (11715501_s_at) / RFU REEP3 (11722064_at) / Fold change /veh REEP3 (11722064_at) / RFU IGLL1 (11728026_x_at) / Fold change /veh IGLL1 (11728026_x_at): dose or concentration left out as unconfirmed", "settings": "ProbeSet 11719493_s_at; LIST B"}
{"smiles": "Nc1ccc(-c2cccs2)cc1NC(=O)c1ccc2c(c1)cc(C1CC1)n2CCN1CCOCC1", "note": "[ACY-1035]", "values": [{"measurement": "Fold change vs veh, TAF9", "value": 0.84}]}
